According to patent publication US6346514B1, “Pharmaceutical lysine-containing polypeptide compositions and methods of use thereof” (priority 1991, dated 2002):

Test system: hemodepression induced by 5-fluorouracil
Test: Hemostimulating effect in 5-fluorouracil-induced hemodepression
Format: in vivo, CBA-mice
Procedure: The test was designed to study hemodepression induced by 5-fluorouracil injected i.p. in a dose 175 mg per kg (172 male CBA-mice). Treatment: peptide HM897 was administered i.p. starting from 4th day after 5-FU injection in doses 0.00001, 0.001, 0.01, 1.0 mg/kg for 5 days. Treatment of controls: normal saline i.p. for 5 days. Tested parameters: peripheral blood count and bone marrow differential count.

Which results are given for Thr-Ala-Glu-Glu-Lys (TAEEK) [HM897]?
restoration of hemopoiesis (5-FU hemodepression, CBA-mice): promotes active restoration of hemopoiesis; dose from which the peptide was active (i.p. for 5 days from 4th day after 5-FU 175 mg per kg): ≥ 1 µg/kg
